From patent US5731322A, “Octahydro-1H-pyrrolo[3,2-g]and [2,3-g]isoquinoline derivatives” (SmithKline Beecham S.p.A., priority 1993, dated 1998)

Columns and labels:
[1] = target: T1, mu opioid receptor (Mus musculus, UniProt P42866); test: Opioid radioligand binding assay, mu ([3H]-DAMGO), mouse brain membranes; details: ratio of Ki, mu ([3H]-DAMGO) vs delta
T1 construct: Mouse brain membranes were prepared as described by Kosterlitz; from tissue; host or cells: mouse brain membranes
Experimental: (§1) Mouse brain membranes were prepared as described by Kosterlitz (Br. J. Pharmacol., 1981, 73, 939.). […] The binding of the mu ligand [^3 H]-DAMGO (Eur. J. Pharmacol., 1989, 166, 213) and of the kappa ligand [^3 H]-U69593 (Excerpta Medica, 1990, 211) were carried out at 0.5 nM. The non-specific binding was determined in presence of naloxone (10 μM) for all tritiated ligands. […] The IC50 obtained were used to calculate the inhibitory constants (Ki) accordingly to the Cheng and Prusoff relation (Biochem. Pharmacol., 1973, 22, 3099).

[2] = target: T2, delta receptor (Mus musculus, UniProt P32300); test: Mouse vas deferens (MVD) bioassay, delta agonist/antagonist studies, electrically stimulated tissue; assay type: cell-based, mouse (CD-1); parameters: Vasa deferentia were obtained from CD-1 mice; from tissue; host or cells: vas deferens of CD-1 mice
T2 sequence (P32300 whole entry): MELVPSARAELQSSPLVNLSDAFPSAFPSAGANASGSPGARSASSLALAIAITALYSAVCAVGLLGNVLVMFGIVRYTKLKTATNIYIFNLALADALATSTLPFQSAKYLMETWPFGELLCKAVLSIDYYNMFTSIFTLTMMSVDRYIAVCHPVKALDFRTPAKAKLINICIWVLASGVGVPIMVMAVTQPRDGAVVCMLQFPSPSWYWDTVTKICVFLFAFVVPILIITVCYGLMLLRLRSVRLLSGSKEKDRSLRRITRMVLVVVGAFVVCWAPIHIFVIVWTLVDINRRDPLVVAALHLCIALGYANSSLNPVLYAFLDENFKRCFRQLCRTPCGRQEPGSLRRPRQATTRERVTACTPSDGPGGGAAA
Experimental: Vasa deferentia were obtained from CD-1 mice and were suspended in a Mg^2+ -free Krebs buffer at 37° C. For the delta agonist/antagonist studies, the tissues were electrically stimulated with pulse trains having the following parameters: train duration 50 ms, stimulus duration 2 ms, frequency of stimuli 50 Hz, maximal voltage 60-70 V, train frequency 0.1 Hz. Concentration response curves for each compounds were constructed cumulatively. Linear regression analysis and IC50 concentrations were evaluated according to Tallarida and Murray (Manual of Pharmacological Calculations, Springer Verlag N.Y., 1981).

[3] = target: T3, kappa opioid receptor (Mus musculus, UniProt P33534); test: Opioid radioligand binding assay, kappa ([3H]-U69593), mouse brain membranes; details: ratio of Ki, kappa ([3H]-U69593) vs delta
T3 construct: Mouse brain membranes were prepared as described by Kosterlitz; from tissue; host or cells: mouse brain membranes
T3 sequence (P33534 whole entry): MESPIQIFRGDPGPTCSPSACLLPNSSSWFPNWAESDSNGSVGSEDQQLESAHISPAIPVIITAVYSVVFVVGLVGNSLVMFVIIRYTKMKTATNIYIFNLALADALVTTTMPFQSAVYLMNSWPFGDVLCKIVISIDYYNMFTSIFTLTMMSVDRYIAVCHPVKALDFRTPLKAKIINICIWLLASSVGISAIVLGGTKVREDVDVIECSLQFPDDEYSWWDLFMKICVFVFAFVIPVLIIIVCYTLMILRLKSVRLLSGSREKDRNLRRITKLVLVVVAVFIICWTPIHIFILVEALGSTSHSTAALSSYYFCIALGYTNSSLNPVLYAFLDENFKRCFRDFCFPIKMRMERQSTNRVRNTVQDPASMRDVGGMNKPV
Experimental: as §1

[4] = target: T2, delta receptor; test: Opioid radioligand binding assay, delta ([3H]-DADLE in presence of unlabelled DAMGO), mouse brain membranes; parameters: Mouse brain membranes were prepared as described by Kosterlitz; from tissue; host or cells: mouse brain membranes; details: [3H]-DADLE 1.3 nM, 40 nM DAMGO
Experimental: as §1

T1 sequence (P42866 whole entry): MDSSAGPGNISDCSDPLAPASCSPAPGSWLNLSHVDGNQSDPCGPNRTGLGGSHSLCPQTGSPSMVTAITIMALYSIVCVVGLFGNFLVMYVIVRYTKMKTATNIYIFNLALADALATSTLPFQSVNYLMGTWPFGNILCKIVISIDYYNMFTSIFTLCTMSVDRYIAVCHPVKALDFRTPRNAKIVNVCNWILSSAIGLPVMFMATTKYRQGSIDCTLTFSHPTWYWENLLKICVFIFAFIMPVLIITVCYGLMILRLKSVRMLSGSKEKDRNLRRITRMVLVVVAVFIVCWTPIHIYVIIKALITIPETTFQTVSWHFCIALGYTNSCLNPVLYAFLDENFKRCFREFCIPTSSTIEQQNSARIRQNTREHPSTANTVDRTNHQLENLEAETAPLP

Structure (SMILES)	Ki mu/Ki delta [1]	Kb [2] [nM]	Ki kappa/Ki delta [3]	Ki [4] [nM]	IC50 ([2]; mouse vas deferens, delta agonist study, read-out: IC50 in the MVD preparation (delta agonists)) [nM]
CCN(CC)C(=O)c1[nH]c2c(c1C)C[C@@H]1CN(C)CC[C@@]1(c1cccc(O)c1)C2.Cl (racemic) [Example 10, (±)-trans-2-Diethylaminocarbonyl-3,6-dimethyl-8a-(3-hydroxyphenyl)-4,4a,5,6,7,8,8a,9-octahydro-1H-pyrrolo[2,3-g]isoquinoline hydrochloride]	45	7	403	2.15	–
CCN1CC[C@@]2(c3cccc(O)c3)Cc3[nH]c(C(=O)N(CC)CC)c(C)c3C[C@@H]2C1.Cl (single isomer, unassigned) [Example 34, (-)-trans-2-Diethylaminocarbonyl-6-ethyl-8a-(3-hydroxyphenyl)-3-methyl-4,4a,5,6,7,8,8a,9-octahydro-1H-pyrrolo[2,3-g]isoquinoline hydrochloride]	110	–	1105	0.73	26
